Legend:
[1] = test system: Human primary hepatocytes (hHEPs); test: Senescence of human primary hepatocytes treated with KAT7 inhibitor; format: cell-based; settings: 100 nM
Description: Human primary hepatocytes (hHEPs) were used as test cells (a product of Lonza, with an article No. of HUCPI), and the cells were treated with a DMSO solution of 100 nM of WM-3835, and DMSO was used as a control.

[2] = test system: WS mesenchymal precursor cells (WS hMPCs); test: Senescence of WS hMPCs treated with KAT7 inhibitor; format: cell-based, human; settings: 50 nM; passages 2-3 after treatment; DMSO control; FIGS. 6C-6D
Description: Passage-4 WS mesenchymal precursor cells (WS hMPCs) in example 1 were used as test cells, and the cells were treated with a DMSO solution of 50 nM of WM-3835. The WM-3835 (with a structural formula as shown in a of FIGS. 6A-6I) was synthesized by entrusting WuXi AppTec, and a DMSO solvent was used as a control.
After the treatment, the cells were continuously passaged to passages 2-3. The cells were collected to detect a KAT7 protein knockdown efficiency (FIG. 6B), and SA-β-gal staining of cell senescence markers and detection of a cell proliferation molecular marker (Ki67) were performed.

## Cc1cc(-c2ccccc2)cc(C(=O)NNS(=O)(=O)c2cccc(O)c2)c1F [WM-3835]
[1]; FIGS. 6E-6I
  expressions of inflammatory genes and SASP-associated genes (RNA-seq): down-regulated
  expressions of metabolism-related genes (RNA-seq): up-regulated
[1]; cultured 8 d, compared with DMSO group
  senescence of hepatocytes (P15, IL6 by RT-qPCR): significantly delay the senescence of hepatocytes
[2]
  senescence of WS hMPCs (SA-β-gal staining, Ki67): can delay the senescence of WS hMPCs

From patent publication US20230416712A1, “APPLICATION OF SUBSTANCE THAT REDUCES THE CONTENT OR ACTIVITY OF KAT7 IN PREVENTING SENESCENCE AND TREATING HEPATIC FIBROSIS” (INSTITUTE OF ZOOLOGY, CHINESE ACADEMY OF SCIENCES, priority 2020, published 2023)
